Reference: patent US20240391936A1, “TETRAHYDROTHIENO PYRIDINE DERIVATIVES AS DDRS INHIBITORS” (CHIESI FARMACEUTICI S.P.A., priority 2021, published 2024)

Key:
DDR1 [1] = molecular target: T1, DDR1 (Homo sapiens, UniProt Q08345); assay: DDR1 binding assay (LanthaScreen Europium Kinase Binding assay); design: purchased Carna Biosciences; conditions: binding assay, 5 nM DDR1, 20 nM Kinase Tracer 178; Ki from IC50 by Cheng-Prusoff; read-out: Ki DDR1
In short: (§1)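 Compounds incubated 1 h at room temperature with 5 nM kinase, Kinase Tracer 178 (20 nM for DDR1, 10 nM for DDR2) and 2 nM Eu-anti-GST antibody in pH 7.5 HEPES/MgCl2/EGTA/BRIJ35 buffer. TR-FRET 665/615 nm ratio read after 340 nm excitation; IC50 from 4-parameter fit, converted to Ki by Cheng-Prusoff.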

DDR1 [2] = molecular target: T1, DDR1; assay: DDR1 cell based assay (PathHunter U2OS DDR1 assay); design: host or cells: U2OS-DDR1 (PathHunter); conditions: U2OS-DDR1 cells, bovine Type II Collagen 20 μg/ml
In short: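 U2OS-DDR1 PathHunter cells preincubated 30 min with compound, then stimulated overnight at 37 °C with 20 μg/ml bovine type II collagen. Luminescent complementation signal read after 1 h detection at room temperature; normalized to vehicle (0%) and collagen-only (100%) controls, IC50 from variable-slope sigmoidal fit.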

DDR2 [3] = molecular target: T2, DDR2 (Homo sapiens, UniProt Q16832); assay: DDR2 cell based assay (phospho-ELISA in HEK293T-DDR2 recombinant cells); design: expressed in transfected cells; host or cells: HEK293T-DDR2 recombinant cells; conditions: bovine Type II Collagen 50 μg/ml
T2 sequence (Q16832 22-855): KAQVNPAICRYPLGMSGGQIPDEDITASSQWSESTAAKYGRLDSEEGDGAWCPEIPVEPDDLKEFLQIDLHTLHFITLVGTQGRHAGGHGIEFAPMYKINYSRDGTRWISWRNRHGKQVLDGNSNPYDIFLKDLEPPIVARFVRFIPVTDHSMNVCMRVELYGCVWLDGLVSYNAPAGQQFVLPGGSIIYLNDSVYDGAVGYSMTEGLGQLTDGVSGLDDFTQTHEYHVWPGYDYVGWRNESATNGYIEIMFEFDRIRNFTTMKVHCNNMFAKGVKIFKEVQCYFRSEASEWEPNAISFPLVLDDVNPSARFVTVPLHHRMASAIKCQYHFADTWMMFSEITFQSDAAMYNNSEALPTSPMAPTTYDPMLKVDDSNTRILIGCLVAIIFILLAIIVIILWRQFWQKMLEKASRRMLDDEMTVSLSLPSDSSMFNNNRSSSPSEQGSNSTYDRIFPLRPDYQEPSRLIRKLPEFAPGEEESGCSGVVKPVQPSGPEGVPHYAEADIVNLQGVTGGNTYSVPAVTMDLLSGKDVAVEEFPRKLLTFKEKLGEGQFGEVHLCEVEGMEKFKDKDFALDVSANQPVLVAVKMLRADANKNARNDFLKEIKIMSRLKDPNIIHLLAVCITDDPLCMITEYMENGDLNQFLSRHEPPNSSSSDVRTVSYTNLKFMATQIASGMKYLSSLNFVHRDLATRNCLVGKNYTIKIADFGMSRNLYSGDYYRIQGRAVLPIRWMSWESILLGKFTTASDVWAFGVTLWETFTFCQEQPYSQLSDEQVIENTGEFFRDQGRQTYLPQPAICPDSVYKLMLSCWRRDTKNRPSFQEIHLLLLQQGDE
Experimental: The inhibition of DDR2 phosphorylation by compounds was evaluated in HEK293T-DDR2 recombinant cells by phospho-ELISA assay. Briefly, HEK293T-DDR2 cells were seeded in poly-D-lysine-coated 24-well plates at a density of 250.000 cells/well and incubated for 1.5 hours at 37° C. and 5% CO2 in DMEM+10% FBS. After that, the medium was changed to serum-free DMEM and cells were incubated for 3 hours. Then. test compounds were added at different concentrations 30 minutes before stimulation with bovine Type II Collagen at 50 μg/ml for further 3 hours. For DDR2 phospho-ELISA assay (DuoSet IC Human Phospho-DDR2; R&D Systems), protein extracts were obtained by adding 60 μl/well of lysis buffer prepared according to the manufacturer's instructions. Protein concentration in the samples was determined by BCA assay and the levels of phospho-DDR2 were determined following R&D Systems indications. Raw data were normalized to maximal inhibition control (0% for normalization) and positive control (100% for normalization; cells treated with […] collagen II) and IC50 parameters were calculated in GraphPad Prism 8.0 software, using sigmoidal dose-response curve fitting with variable slope.

DDR2 [4] = molecular target: T2, DDR2; assay: DDR2 binding assay (LanthaScreen Europium Kinase Binding assay); design: purchased Life Technologies; conditions: binding assay, 5 nM DDR2, 10 nM Kinase Tracer 178; Ki from IC50 by Cheng-Prusoff; read-out: Ki DDR2
In short: as §1

T1 sequence (Q08345 19-913): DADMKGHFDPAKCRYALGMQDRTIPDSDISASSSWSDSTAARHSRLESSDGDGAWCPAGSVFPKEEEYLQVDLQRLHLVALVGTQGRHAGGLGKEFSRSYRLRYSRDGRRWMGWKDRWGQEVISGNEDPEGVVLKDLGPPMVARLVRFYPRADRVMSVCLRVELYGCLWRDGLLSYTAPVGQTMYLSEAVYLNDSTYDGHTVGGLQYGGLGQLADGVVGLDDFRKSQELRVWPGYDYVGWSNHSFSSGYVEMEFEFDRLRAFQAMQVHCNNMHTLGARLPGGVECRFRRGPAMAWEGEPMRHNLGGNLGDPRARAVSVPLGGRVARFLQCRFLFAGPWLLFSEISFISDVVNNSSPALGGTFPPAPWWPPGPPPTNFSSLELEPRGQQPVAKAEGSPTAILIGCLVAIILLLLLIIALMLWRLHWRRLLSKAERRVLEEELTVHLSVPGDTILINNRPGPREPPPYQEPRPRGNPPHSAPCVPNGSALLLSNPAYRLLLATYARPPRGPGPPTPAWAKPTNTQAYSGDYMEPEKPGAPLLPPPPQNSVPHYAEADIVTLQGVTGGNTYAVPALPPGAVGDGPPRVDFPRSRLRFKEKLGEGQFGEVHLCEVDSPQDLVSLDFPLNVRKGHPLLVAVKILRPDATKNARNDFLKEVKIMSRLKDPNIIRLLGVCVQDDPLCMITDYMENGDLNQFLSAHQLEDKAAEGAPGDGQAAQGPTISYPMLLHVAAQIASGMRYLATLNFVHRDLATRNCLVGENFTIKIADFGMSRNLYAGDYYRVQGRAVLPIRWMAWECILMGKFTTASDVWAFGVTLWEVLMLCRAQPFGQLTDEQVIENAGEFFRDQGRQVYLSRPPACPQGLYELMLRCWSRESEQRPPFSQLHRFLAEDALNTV

Row | Ki (DDR1 [1]) [nM] | IC50 (DDR1 [2]) [nM] | IC50 (DDR2 [3]) [nM] | Ki (DDR2 [4]) [nM] | Structure (SMILES)
1 | < 25 | < 25 | < 25 | < 25 | O=C(Nc1cccc(C(F)(F)F)c1)c1csc2c1CCN(Cc1cnc3[nH]ncc3c1)C2 [Example 85, 6-((1H-pyrazolo[3,4-b]pyridin-5-yl)methyl)-N-(3-(trifluoromethyl)phenyl)-4,5,6,7-tetrahydrothieno[2,3-c]pyridine-3-carboxamide]
2 | < 25 | 25 to 50 |  | < 25 | O=C(Nc1cncc(C(F)(F)F)c1)c1csc2c1CCN(C(=O)c1cnc3cnccn13)C2 [Example 127, 6-(imidazo[1,2-a]pyrazine-3-carbonyl)-N-(5-(trifluoromethyl)pyridin-3-yl)-4,5,6,7-tetrahydrothieno[2,3-c]pyridine-3-carboxamide]
3 | < 25 | 50 to 80 |  | < 25 | O=C(Nc1cncc(C(F)(F)F)c1)c1csc2c1CCN(Cc1cnn3ccncc13)C2 [Example 154, 6-(pyrazolo[1,5-a]pyrazin-3-ylmethyl)-N-(5-(trifluoromethyl)pyridin-3-yl)-4,5,6,7-tetrahydrothieno[2,3-c]pyridine-3-carboxamide]
4 | < 25 | 25 to 50 |  | 25 to 50 | CN(C)Cc1cc(NC(=O)c2csc3c2CCN(C(=O)c2cnc4ccccn24)C3)cc(C(F)(F)F)n1 [Example 129, N-(2-((dimethylamino)methyl)-6-(trifluoromethyl)pyridin-4-yl)-6-(imidazo[1,2-a]pyridine-3-carbonyl)-4,5,6,7-tetrahydrothieno[2,3-c]pyridine-3-carboxamide]
5 | < 25 | < 25 |  | < 25 | O=C(Nc1cncc(C(F)(F)F)c1)c1csc2c1CCN(C(=O)c1cnn3ccsc13)C2 [Example 141, 6-(pyrazolo[5,1-b]thiazole-7-carbonyl)-N-(5-(trifluoromethyl)pyridin-3-yl)-4,5,6,7-tetrahydrothieno[2,3-c]pyridine-3-carboxamide]
6 | < 25 | 25 to 50 |  | < 25 | O=C(Nc1cncc(C(F)(F)F)c1)c1csc2c1CCN(Cc1ncnc3[nH]ccc13)C2 [Example 155, 6-((7H-pyrrolo[2,3-d]pyrimidin-4-yl)methyl)-N-(5-(trifluoromethyl)pyridin-3-yl)-4,5,6,7-tetrahydrothieno[2,3-c]pyridine-3-carboxamide]
7 | < 25 | < 25 |  | < 25 | O=C(Nc1cncc(OC(F)(F)F)c1)c1csc2c1CCN(C(=O)c1cnn3ccncc13)C2 [Example 128, 6-(pyrazolo[1,5-a]pyrazine-3-carbonyl)-N-(5-(trifluoromethoxy)pyridin-3-yl)-4,5,6,7-tetrahydrothieno[2,3-c]pyridine-3-carboxamide]
8 | < 25 | < 25 |  | < 25 | O=C(Nc1cc(CN2CCC2)cc(C(F)(F)F)c1)c1csc2c1CCN(C(=O)c1cnc3ccccn13)C2 [Example 52, N-(3-(azetidin-1-ylmethyl)-5-(trifluoromethyl)phenyl)-6-(imidazo[1,2-a]pyridine-3-carbonyl)-4,5,6,7-tetrahydrothieno[2,3-c]pyridine-3-carboxamide]
9 | < 25 | 50 to 80 |  | < 25 | O=C(Nc1nccc(C(F)(F)F)n1)c1csc2c1CCN(C(=O)c1cnc3ccccn13)C2 [Example 30, 6-(imidazo[1,2-a]pyridine-3-carbonyl)-N-(4-(trifluoromethyl)pyrimidin-2-yl)-4,5,6,7-tetrahydrothieno[2,3-c]pyridine-3-carboxamide]
10 | < 25 | 25 to 50 |  | < 25 | O=C(Nc1cc(OCCN2CCCC2)cc(C(F)(F)F)c1)c1csc2c1CCN(C(=O)c1cnc3ccccn13)C2 [Example 26, 6-(imidazo[1,2-a]pyridine-3-carbonyl)-N-(3-(2-(pyrrolidin-1-yl)ethoxy)-5-(trifluoromethyl)phenyl)-4,5,6,7-tetrahydrothieno[2,3-c]pyridine-3-carboxamide]

Second part, the compound before the results:

Row | Structure (SMILES) | Ki (DDR1 [1]) [nM] | IC50 (DDR1 [2]) [nM] | IC50 (DDR2 [3]) [nM] | Ki (DDR2 [4]) [nM]
11 | N#Cc1cc(NC(=O)c2csc3c2CCN(C(=O)c2cnn4ccncc24)C3)cc(C(F)(F)F)c1 [Example 184, N-(3-cyano-5-(trifluoromethyl)phenyl)-6-(pyrazolo[1,5-a]pyrazine-3-carbonyl)-4,5,6,7-tetrahydrothieno[2,3-c]pyridine-3-carboxamide] | < 25 | < 25 | 25 to 50 | < 25
12 | O=C(Nc1cncc(C(F)(F)F)c1)c1csc2c1CCN(C(=O)c1cnn3ccccc13)C2 [Example 124, 6-(pyrazolo[1,5-a]pyridine-3-carbonyl)-N-(5-(trifluoromethyl)pyridin-3-yl)-4,5,6,7-tetrahydrothieno[2,3-c]pyridine-3-carboxamide] | < 25 | < 25 |  | < 25
13 | CCCc1cc(NC(=O)c2csc3c2CCN(C(=O)c2cnc4ccccn24)C3)n(C)n1 [Example 39, 6-(imidazo[1,2-a]pyridine-3-carbonyl)-N-(1-methyl-3-propyl-1H-pyrazol-5-yl)-4,5,6,7-tetrahydrothieno[2,3-c]pyridine-3-carboxamide] | < 25 | 25 to 50 |  | < 25
14 | CC(C)(C)c1cc(NC(=O)c2csc3c2CCN(C(=O)c2cnc4ccccn24)C3)no1 [Example 33, N-(5-(tert-butyl)isoxazol-3-yl)-6-(imidazo[1,2-a]pyridine-3-carbonyl)-4,5,6,7-tetrahydrothieno[2,3-c]pyridine-3-carboxamide] | < 25 | 25 to 50 |  | < 25
15 | COCCOc1ccc(NC(=O)c2csc3c2CCN(C(=O)c2cnc4ccccn24)C3)cc1C(F)(F)F [Example 15, 6-(imidazo[1,2-a]pyridine-3-carbonyl)-N-(4-(2-methoxyethoxy)-3-(trifluoromethyl)phenyl)-4,5,6,7-tetrahydrothieno[2,3-c]pyridine-3-carboxamide] | < 25 | 25 to 50 |  | < 25
16 | CN1CC2(C1)CN(c1ccc3ncc(C(=O)N4CCc5c(C(=O)Nc6cccc(C(F)(F)F)c6)csc5C4)n3c1)C2 [Example 166, 6-(6-(6-methyl-2,6-diazaspiro[3.3]heptan-2-yl)imidazo[1,2-a]pyridine-3-carbonyl)-N-(3-(trifluoromethyl)phenyl)-4,5,6,7-tetrahydrothieno[2,3-c]pyridine-3-carboxamide] | < 25 | 50 to 80 |  | < 25
17 | Cc1ccc2ncc(C(=O)N3CCc4c(C(=O)Nc5cc(C(C)(C)C)nn5C)csc4C3)n2c1 [Example 80, N-(3-(tert-butyl)-1-methyl-1H-pyrazol-5-yl)-6-(6-methylimidazo[1,2-a]pyridine-3-carbonyl)-4,5,6,7-tetrahydrothieno[2,3-c]pyridine-3-carboxamide] | < 25 | 25 to 50 |  | < 25
